Test results reported in patent US8853424B2 (Japan Science and Technology Agency, priority 2008, dated 2014).

Legend:
[1] = tested on: transglutaminase (TGase); assay: Measurement of TG (TGase inhibitory activity, monodansyl cadaverine / N,N-dimethylcasein fluorescence, FDSS 3000); assay type: biochemical
Protocol: For example, the method described in the Example can be performed.
The compound of the present invention (10 mM, 1 μL) was taken in a 96-well plate (Nunc, 96 Well Black Plate with Clear Bottom), an enzyme reaction solution (100 mM HEPES-NaOH, pH 7.5, 1 mM CaCl2, 20 μM monodansyl cadaverine, 0.05 mg/mL N,N-dimethylcasein, 5 μg/mL TGase) (0.1 ml) was added and the mixture was sufficiently mixed without making foams. The mixture was set on a fluorescence drug screening system FDSS 3000 (Hamamatsu Photonics K.K.), and changes in the fluorescence wavelength per unit time at 340 nm were measured, based on which the TGase inhibitory activity of the compound of the present invention was calculated. As a control, change in the fluorescence when 1 μL of DMSO (dimethyl sulfoxide) was added instead of the compound of the present invention was taken as 100, and TG50 was when the activity decreased to half due to the compound of the present invention.

[2] = tested on: Truncated N-terminal huntington 150 Q-EGFP-Neuron 2a cells; assay: Measurement of x-Fold (polyglutamine aggregation inhibitory activity); assay type: cell-based
Protocol: In the present invention, the polyglutamine aggregation inhibitory activity (x-Fold) can be measured, for example, by the method described in the Example.
The number of the aggregated cells, and the total number of cells were counted by Array Scan V T1 (manufactured by Cellomics, Pittuburg, USA), and the ratio of the aggregated cells to the total number of cells was determined (x-Fold). […]

[3] = TGase activity with compound (10 mM, 1 μL in 0.1 ml enzyme reaction solution), DMSO control taken as 100
[4] = TGase inhibitory activity value, Table 1
[5] = polyglutamine aggregation inhibitory activity, Table 1
[6] = ratio of aggregated cells to total number of cells, compound 20 μM, 20 hr, almost 1 without compound, smaller = stronger inhibition
[7] = TGase inhibitory activity measurement, unit not given
[8] = polyglutamine aggregation, Truncated N-terminal huntington 150 Q-EGFP-Neuron 2a cells

Compound | TGase activity remaining (% of DMSO control = 100) [1, 3] | TGase activity remaining (% of DMSO control = 100) [1, 4] | x-Fold [2, 5] | x-Fold [2, 6] | further results
NCC(OB(c1ccc(F)c(F)c1)c1ccc(F)c(F)c1)c1ccccc1 (stereo not shown) [Example 88, 2-amino-1-phenylethyl bis(3,4-difluorophenyl)borinate] | 82 | 82 | 0.83 | 0.83 | 
Nc1ccccc1C(=O)OB(c1ccccc1)c1ccccc1 [Example 219, diphenyl(2-aminophenyl carboxylate-O,N)borane] | 91 | 91 | 0.88 | 0.88 | 
COc1ccc(C(OB(c2ccccc2)c2ccc(COc3ccc(B(OC(c4ccc(OC)cc4)c4ccccn4)c4ccccc4)cc3)cc2)c2ccccn2)cc1 (stereo not shown) [Example 430, 4-(phenyl-p-methoxyphenyl-2-pyridylmethoxyboryl)-phenyl 4′-(phenyl-p-methoxyphenyl-2-pyridylmethoxyboryl)benzylether] | 106 |  |  | 1.03 | TGase activity remaining (% of DMSO control = 100) [1, 7]: 106; x-Fold [2, 8]: 1.03
O=C(OB(c1ccccc1)c1ccccc1)C1CNCCN1 (stereo not shown) [Example 279, diphenyl(2-piperazinecarboxy)borane] | 103 | 103 | 0.98 | 0.98 | 
NCCC(N)C(=O)OB(c1ccccc1)c1ccccc1 (stereo not shown) [Example 280, diphenyl(2,4-diaminolacetic acid)borane] | 98 |  |  | 0.88 | TGase activity remaining (% of DMSO control = 100) ([1]; TGase inhibitory activity value, Table 1, listed as 897): 98; x-Fold ([2]; polyglutamine aggregation inhibitory activity, Table 1, listed as 897): 0.88
OB(c1ccc(COCc2ccc(B(O)c3ccc(C(F)(F)F)cc3)cc2)cc1)c1ccc(C(F)(F)F)cc1 [Example 407, bis(4,4′-(p-trifluoromethylphenyl-hydroxyboryl)benzyl)ether] | 77 |  |  | 1.02 | 
NC(COB(c1ccccc1)c1ccc(COCc2ccc(B(OCC(N)Cc3ccccc3)c3ccccc3)cc2)cc1)Cc1ccccc1 (stereo not shown) [Example 205, bis(4,4′-(phenyl 2-amino-2-benzylethoxyboryl)benzyl)ether] | 47 | 47 | 0.80 | 0.80 | 
NCCC(N)C(=O)OB(c1ccccc1)c1ccc(COCc2ccc(B(OC(=O)C(N)CCN)c3ccccc3)cc2)cc1 (stereo not shown) [Example 453, bis(4,4′-(phenyl-2,4-diaminobutyrateboryl)benzyl)ether] | 113 |  |  | 1.04 | TGase activity remaining (% of DMSO control = 100) [1, 7]: 113; x-Fold [2, 8]: 1.04
tetramethylrhodamine aminoethylaminoethyl diphenylborinate [Example 162] | −2 | −2 | 0.85 | 0.85 | 
Cc1ccc(B(O)c2ccc(Oc3ccc(B(O)c4ccc(C)cc4)cc3)cc2)cc1 [Example 440, bis(4,4′-(tolylhydroxyboryl)phenyl)ether] | 63 |  |  | 0.69 | TGase activity remaining (% of DMSO control = 100) [1, 7]: 63; x-Fold [2, 8]: 0.69
c1ccc(B(OC2CCCNC2)c2ccc(Oc3ccc(B(OC4CCCNC4)c4ccccc4)cc3)cc2)cc1 (stereo not shown) [Example 431, bis(4,4′-(phenyl-3-piperidyloxyboryl)phenyl)ether] | 118 |  | 0.57 | 1.02 | 
CCN(CC)CC.CN(C)c1ccc2c(-c3ccc(NC(=S)NCCCCC(N)C(=O)OB(c4ccccc4)c4ccccc4)cc3C(=O)[O-])c3ccc(=[N+](C)C)cc-3oc2c1 (stereo not shown) [Example 176, diphenyl(tetramethylrhodamine 2,6-diaminocapronate-O,N)borane] | 47 | 47 | 1.06 | 1.06 | 
NCC(N)C(=O)OB(c1ccccc1)c1ccccc1 (stereo not shown) [Example 174, diphenyl(2,3-diaminopropionate-O,N)borane] | 103 |  |  | 0.99 | TGase activity remaining (% of DMSO control = 100) ([1]; TGase inhibitory activity value, Table 1, listed as 2031-4): 103; x-Fold ([2]; polyglutamine aggregation inhibitory activity, Table 1, listed as 2031-4): 0.99
CCN(CC)CC.CN(C)c1ccc2c(-c3ccc(NC(=S)NCC(N)C(=O)OB(c4ccccc4)c4ccccc4)cc3C(=O)[O-])c3ccc(=[N+](C)C)cc-3oc2c1 (stereo not shown) [Example 175, diphenyl(tetramethylrhodamine 2,3-diaminopropionate-O,N)borane] | 5 | 5 | 0.89 | 0.89 | 
COc1ccc(C(OB(c2ccc(C)c(Cl)c2)c2ccc(C)c(Cl)c2)c2ccccn2)cc1 (stereo not shown) [Example 127, bis(3-chloro-4-methylphenyl) 2-pyridyl-4-methoxyphenylmethoxyborane] | 109 | 109 | 0.70 | 0.70 | 
OB(c1cc(F)c(F)c(F)c1)c1cc(F)c(F)c(F)c1 [Example 81, bis(3,4,5-trifluorophenyl)borinic acid] | 97 | 97 | 0.92 | 0.92 | 
NCCOB(c1cc(F)c(F)c(F)c1)c1cc(F)c(F)c(F)c1 [Example 89, aminoethyl bis(3,4,5-trifluorophenyl)borinate] | 80 | 80 | 0.94 | 0.94 | 
NCCOB(c1ccc(F)c(Cl)c1)c1ccc(F)c(Cl)c1 [Example 86, 2-aminoethyl bis(3-chloro-4-fluorophenyl)borinate] | 103 |  |  | 0.99 | TGase activity remaining (% of DMSO control = 100) ([1]; TGase inhibitory activity value, Table 1, listed as 6015): 103; x-Fold ([2]; polyglutamine aggregation inhibitory activity, Table 1, listed as 6015): 0.99
NCCOB(c1ccccc1)c1ccc(B(OCCN)c2ccccc2)o1 [Example 384, bis(2,5-(phenylaminoethoxyboryl))furan] | 60 | 60 | 1.05 | 1.05 | 
NCC(N)C(=O)OB(c1ccccc1)c1ccc(Oc2ccc(B(OC(=O)C(N)CN)c3ccccc3)cc2)cc1 (stereo not shown) [Example 436, bis(4,4′-(phenyl-2,3-diaminopropionic acid boryl)phenyl)ether] | 104 |  | 0.73 | 0.85 | TGase activity remaining (% of DMSO control = 100) [1, 7]: 104; x-Fold [2, 8]: 0.85
CN(C)CCOB(c1ccc(COc2ccc(B(OCCN(C)C)c3ccc(C(F)(F)F)cc3)cc2)cc1)c1ccc(C(F)(F)F)cc1 [Example 401, (4′-trifluoromethylphenyl-N,N-dimethylaminoethoxyboryl)-4-phenyl (4′-trifluoromethylphenyl-N,N-dimethylaminoethoxyborylbenzyl)ether] | 121 |  |  | 0.95 | TGase activity remaining (% of DMSO control = 100) [1, 7]: 121; x-Fold [2, 8]: 0.95
CN(C)CCOB(c1ccccc1)c1ccc(Oc2ccc(B(OCCN(C)C)c3ccccc3)cc2)cc1 [Example 395, bis(4,4′-(phenyl-N,N-dimethylaminoethoxyboryl)phenyl)ether] | 116 |  |  | 0.86 | 
NC(=O)CCC(N)C(=O)OB(c1ccccc1)c1ccccc1 (stereo not shown) [Example 276, diphenyl(glutaminate-O,N)borane] | 105 |  |  | 0.8 | TGase activity remaining (% of DMSO control = 100) ([1]; TGase inhibitory activity value, Table 1, listed as 854): 105; x-Fold ([2]; polyglutamine aggregation inhibitory activity, Table 1, listed as 854): 0.8
CCCCC(N)C(=O)OB(c1ccc(C)c(Cl)c1)c1ccc(C)c(Cl)c1 (stereo not shown) [Example 227, di(3-chloro-4-methylphenyl)(norloysinate-O,N)borane] | 110 |  |  | 0.99 | TGase activity remaining (% of DMSO control = 100) ([1]; TGase inhibitory activity value, Table 1, listed as 4130): 110; x-Fold ([2]; polyglutamine aggregation inhibitory activity, Table 1, listed as 4130): 0.99
CN(C)CCOB(c1ccccc1)c1cccc(COCc2cccc(B(OCCN(C)C)c3ccccc3)c2)c1 [Example 206, bis(3,3′-(phenyldimethylaminoethoxyboryl)benzyl)ether] | 34 |  |  | 1.14 | TGase activity remaining (% of DMSO control = 100) ([1]; TGase inhibitory activity value, Table 1, listed as 3107): 34; x-Fold ([2]; polyglutamine aggregation inhibitory activity, Table 1, listed as 3107): 1.14
CNCCOB(c1cc(Cl)ccc1F)c1cc(Cl)ccc1F [Example 101, methylaminoethyl bis(3-chloro-6-fluorophenyl)borinate] | 122 | 122 | 1.02 | 1.02 | 
